Measurements reported in patent US20260225997A1, “IONIZABLE AMINE LIPIDS” (Intellia Therapeutics, Inc., priority 2018, published 2026).

Key:
B2M = B2M editing in mouse liver by NGS after i.v. LNP delivery of Cas9 mRNA and sgRNA; type: in vivo; settings: Example 52: LNP single dose 0.1 mg/kg i.v., CD-1 female mice, sgRNA G650:Cas9 mRNA 1:1, NGS
Method: Preparations of various LNP compositions were prepared with amine lipids. In assays for percent liver editing in mice, Cas9 mRNA and chemically modified sgRNA were formulated in LNPs, at either a 1:1 w/w ratio or a 1:2 w/w ratio. LNPs are formulated with a composition of a given ionizable lipid (e.g. an amine lipid), DSPC, cholesterol, and PEG-2k-DMG, with a 6.0 N:P ratio.
LNPs were administered to mice by a single dose at 0.1 mg/kg, unless otherwise noted and genomic DNA was isolated for NGS analysis as described below.
CD-1 female mice, ranging from 6-10 weeks of age were used in each study. Animals were weighed and grouped according to body weight for preparing dosing solutions based on group average weight. LNPs were dosed via the lateral tail vein in a volume of 0.2 mL per animal (approximately 10 mL per kilogram body weight). The animals were periodically observed post dose for adverse effects for at least 24 hours post dose. Animals were euthanized at 6 or 7 days by exsanguination via cardiac puncture under isoflurane anesthesia. Blood was collected into serum separator tubes or into tubes containing buffered sodium citrate for plasma as described herein. For studies involving in vivo editing, liver tissue was collected from each animal for DNA extraction and analysis.
Cohorts of mice were measured for liver editing by Next-Generation Sequencing (NGS).
In brief, to quantitatively determine the efficiency of editing at the target location in the genome, genomic DNA was isolated and deep sequencing was utilized to identify the presence of insertions and deletions introduced by gene editing.
PCR primers were designed around the target site (e.g., B2M), and the genomic area of interest was amplified. Additional PCR was performed according to the manufacturer's protocols (Illumina) to add the necessary chemistry for sequencing. The amplicons were sequenced on an Illumina MiSeq instrument. The reads were aligned to the […] after eliminating those having low quality scores. The resulting files containing the reads were mapped to the reference genome (BAM files), where reads that overlapped the target region of interest were selected and the number of wild type reads versus the number of reads which contain an insertion, substitution, or deletion was calculated.
The editing percentage (e.g., the “editing efficiency” or “percent editing”) is defined as the total number of sequence reads with insertions or deletions over the total number of sequence reads, including wild type.
CD-1 female mice were dosed i.v. at 0.1 mpk or 0.3 mpk. […] For animals dosed with G282 targeting TTR, blood and the liver were collected and serum TTR and editing were measured. For animals dosed with G650 targeting B2M, liver was collected and editing was measured.

[1] = pKa measurement of unformulated amine lipid (fluorescence, method of Jayaraman et al.); type: physicochemical; settings: 100 μM in 0.1 M phosphate buffer pH 4.5-9.0
Method: The pKa of each amine lipid was determined according to the method in Jayaraman, et al. (Angewandte Chemie, 2012) with the following adaptations. […] Lipid was diluted to 100 μM in 0.1 M phosphate buffer (Boston Bioproducts) where the pH ranged from 4.5-9.0. Fluorescence intensity was measured using excitation and emission wavelengths of 321 nm and 448 nm.

[2] = LNP average particle size and polydispersity by dynamic light scattering (Malvern Zetasizer); type: physicochemical; settings: Table 3, Example 52: LNP, Cas9 mRNA + sgRNA (G650) 1:1 w/w, N:P 6.0
Excerpt: The LNPs have a size of about 1 to about 1,000 nm, about 10 to about 500 nm, about 20 to about 500 nm, in a sub-embodiment about 50 to about 400 nm, in a sub-embodiment about 50 to about 300 nm, in a sub-embodiment about 50 to about 200 nm, and in a sub-embodiment about 50 to about 150 nm, and in another sub-embodiment about 60 to about 120 nm. Preferably, the LNPs have a size from about 60 nm to about 100 nm. The average sizes (diameters) of the fully formed LNP, may be measured by dynamic light scattering on a Malvern Zetasizer. The LNP sample is diluted in phosphate buffered saline (PBS) so that the count rate is approximately 200-400 kcps. The data is presented as a weighted average of the intensity measure.
The LNPs disclosed herein have a size (e.g. Z-average diameter) of about 1 to about 250 nm. In some embodiments, the LNPs have a size of about 10 to about 200 nm. In further embodiments, the LNPs have a size of about 20 to about 150 nm. In some embodiments, the LNPs have a size of about 50 to about 150 nm. In some embodiments, the LNPs have a size of about 50 to about 100 nm. In some embodiments, the LNPs have a size of about 50 to about 120 nm. In some embodiments, the LNPs have a size of about 60 to about 100 nm. In some embodiments, the LNPs have a size of about 75 to about 150 nm. In some embodiments, the LNPs have a size of about 75 to about 120 nm. In some embodiments, the LNPs have a size of about 75 to about 100 nm. Unless indicated otherwise, all sizes referred to herein are the average sizes (diameters) of the fully formed nanoparticles, as measured by dynamic light scattering on a Malvern Zetasizer. The nanoparticle sample is diluted in phosphate buffered saline (PBS) so that the count rate is approximately 200-400 kcps. The data is presented as a weighted-average of the intensity measure (Z-average diameter).
Dynamic Light Scattering (“DLS”) is used to characterize the polydispersity index (“pdi”) and size of the LNPs of the present disclosure. DLS measures the scattering of light that results from subjecting a sample to a light source. PDI, as determined from DLS measurements, represents the distribution of particle size (around the mean particle size) in a population, with a perfectly uniform population having a PDI of zero.
LNP compositions are analyzed for average particle size, polydispersity index (pdi), total RNA content, encapsulation efficiency of RNA, and zeta potential. LNP compositions may be further characterized by lipid analysis, AF4-MALS, NTA, and/or cryo-EM. Average particle size and polydispersity are measured by dynamic light scattering (DLS) using a Malvern Zetasizer DLS instrument. LNP samples were diluted with PBS buffer prior to being measured by DLS. Z-average diameter which is an intensity-based measurement of average particle size was reported along with number average diameter and pdi. A Malvern Zetasizer instrument is also used to measure the zeta potential of the LNP. Samples are diluted 1:17 (50 μL into 800 μL) in 0.1×PBS, pH 7.4 prior to measurement.

[3] = RNA encapsulation efficiency of LNP (Ribogreen fluorescence assay); type: physicochemical; settings: Table 3, Example 52: LNP, Cas9 mRNA + sgRNA (G650) 1:1 w/w, N:P 6.0; Compound 19 50/9/38/3, others 50/10/38.5/1.5
Method: A fluorescence-based assay (Ribogreen®, ThermoFisher Scientific) is used to determine total RNA concentration and free RNA. Encapsulation efficiency is calculated as (Total RNA−Free RNA)/Total RNA. LNP samples are diluted appropriately with 1× TE buffer containing 0.2% Triton-X 100 to determine total RNA or 1× TE buffer to determine free RNA. Standard curves are prepared by utilizing the starting RNA solution used to make the compositions and diluted in 1× TE buffer+/−0.2% Triton-X 100. Diluted RiboGreen® dye (according to the manufacturer's instructions) is then added to each of the standards and samples and allowed to incubate for approximately 10 minutes at room temperature, in the absence of light. A SpectraMax M5 Microplate Reader (Molecular Devices) is used to read the samples with excitation, auto cutoff and emission wavelengths set to 488 nm, 515 nm, and 525 nm respectively. Total RNA and free RNA are determined from the appropriate standard curves.
Encapsulation efficiency is calculated as (Total RNA−Free RNA)/Total RNA. The same procedure may be used for determining the encapsulation efficiency of a DNA-based cargo component. For single-strand DNA Oligreen Dye may be used, and for double-strand DNA, Picogreen Dye.

- pKa [1]: 6.19
- Num Ave Size (nm) [2]: 57.41 nm
- PDI [2]: 0.056
- Z-Ave Size (nm) [2]: 75.79 nm
- Encapsulation (%) [3]: 98%
Compound: CCCCCCCCCCOC(CCCCCCCN(CCO)CCCCCCCC(=O)OCCCCCCCCC)OCCCCCCCCCC [Compound 3, nonyl 8-[8,8-didecoxyoctyl(2-hydroxyethyl)amino]octanoate]
- Editing (%) of B2M in mouse liver (B2M): 8.8%
